Measurements taken from patent publication US11840533B2, “Pyridinone-based epigenetic modifiers and uses thereof” (THE BOARD OF TRUSTEES OF THE UNIVERSITY OF ILLINOIS, priority 2017, dated 2023).
pIC50, pKi: −log10 of the molar value.

What was measured:
[1] = tested on: fulvestrant-resistant MCF7:5C-FR cells; test: Fulvestrant-resistant breast cancer cell viability (cell proliferation) assay; format: cell-based; conditions: growth inhibition in fulvestrant-resistant MCF-7:CFR cells, 120 hrs
Procedure, shortened: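 Cells were treated the day after seeding with compounds at 3 nM to 10 uM for 120 h, with 0.1% DMSO vehicle and 1 uM JQ1 as positive control. Hoechst 33342-stained (5 μg/ml, 90 min, 37 C) nuclei were imaged and counted, and cell numbers normalized to vehicle.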

BRD4 bromodomain 2 = BRD4 bromodomain 2 (Homo sapiens (Human), UniProt O60885); test: TR-FRET BRD4 binding assay, bromodomain 2; conditions: read-out: TR-FRET BRD4-BD2 Ki
Description: (§1) Briefly, compounds were serial diluted into the 1×TR-FRET Assay Buffer with no more than 8% DMSO, and the final concentration tested was distributed from […] to 10 uM with no more than 2% DMSO. (+)JQ-1 was used as positive control. […] Then the reconstituted BRD4 bromodomain ligand/APC Acceptor Mixture were added to every well and incubate for 1 hr at room temperature. The plate was sealed with adhesive aluminum seal to prevent photobleaching. Then the plate was read in time-resolved format by exiting the well at 340 nm and reading emmission at 620 and 670 nm, using 100 us delay and 500 us read window. Data analysis was performed using the TR-FRET ratio which is the 670 nm emission/620 nm emission.

BRD4 bromodomain 1 = BRD4 bromodomain 1 (Homo sapiens (Human), UniProt O60885); test: TR-FRET BRD4 binding assay, bromodomain 1; conditions: read-out: TR-FRET BRD4-BD1 Ki
Description: as §1

Cn1cc(-c2cc(NS(C)(=O)=O)c3ccn(Cc4ccc(F)cc4)c3c2)c2ccnc(O)c21 [Compound 23, N-(1-(4-fluorobenzyl)-6-(7-hydroxy-1-methyl-1H-pyrrolo[2,3-c]pyridin-3-yl)-1-indol-4-yl)methanesulfonamide]
pIC50 ([1]; 120 h): 7.77 | pKi (BRD4 bromodomain 2): > 7.00 | pKi (BRD4 bromodomain 1): > 7.00

Cn1cc(-c2cc(NS(C)(=O)=O)c3cnn(Cc4ccc(F)cc4)c3c2)c2ccnc(O)c21 [Compound 30, N-(1-(4-fluorobenzyl)-6-(7-hydroxy-1-methyl-1H-pyrrolo[2,3-c]pyridin-3-yl)-1H-indazol-4-yl)methanesulfonamide]
pIC50 ([1]; 120 h): 7.40 | pKi (BRD4 bromodomain 2): > 7.00 | pKi (BRD4 bromodomain 1): > 7.00

CCS(=O)(=O)Nc1cc(-c2cn(C)c3c(O)nccc23)cc2c1cnn2Cc1ccc(F)cc1 [Compound 31, N-(1-(4-fluorobenzyl)-6-(7-hydroxy-1-methyl-1H-pyrrolo[2,3-c]pyridin-3-yl)-1H-indazol-4-yl)ethanesulfonamide]
pIC50 ([1]; 120 h): 7.82 | pKi (BRD4 bromodomain 2): > 7.00 | pKi (BRD4 bromodomain 1): > 7.00

CC(=O)Nc1cc(-c2cn(C)c3c(=O)[nH]ccc23)cc2c1ccn2C(C)(c1ccccn1)c1ccccn1 [Compound 71, N-(1-(1,1-di(pyridin-2-yl)ethyl)-6-(1-methyl-7-oxo-6,7-dihydro-1H-pyrrolo[2,3-c]pyridin-3-yl)-1H-indol-4-yl)acetamide]
pIC50 ([1]; 120 h): 8.00 | pKi (BRD4 bromodomain 2): > 8.00 | pKi (BRD4 bromodomain 1): > 8.00

Cn1cc(-c2cc(C(C)(C)O)c3ccn(C(C)(c4ccccn4)c4ccccn4)c3c2)c2cc[nH]c(=O)c21 [Compound 72, 3-(1-(1,1-di(pyridin-2-yl)ethyl)-4-(2-hydroxypropan-2-yl)-1H-indol-6-yl)-1-methyl-1H-pyrrolo[2,3-c]pyridin-7(6H)-one]
pIC50 ([1]; 120 h): 7.70 | pKi (BRD4 bromodomain 2): > 8.00 | pKi (BRD4 bromodomain 1): > 8.00

Cn1cc(-c2cc3c(C(C)(C)O)cccc3n2[C@H](c2ccccc2)C2CCOCC2)c2ccnc(O)c21 [Compound 117, (S)-3-(4-(2-hydroxypropan-2-yl)-1-(phenyl(tetrahydro-2H-pyran-4-yl)methyl)-1H-indol-2-yl)-1-methyl-1H-pyrrolo[2,3-c]pyridin-7-ol]
pIC50 ([1]; 120 h): > 6.00

CC(=O)Nc1cccc2c1cc(-c1cn(C)c3c(O)nccc13)n2[C@@H](c1ccccc1)C1CCOCC1 [Compound 118, (R)-N-(2-(7-hydroxy-1-methyl-1H-pyrrolo[2,3-c]pyridin-3-yl)-1-(phenyl(tetrahydro-2H-pyran-4-yl)methyl)-1H-indol-4-yl)acetamide]
pIC50 ([1]; 120 h): > 6.00

CC(=O)Nc1cccc2c1cc(-c1cn(C)c3c(O)nccc13)n2[C@H](c1ccccc1)C1CCOCC1 [Compound 119, (S)-N-(2-(7-hydroxy-1-methyl-1H-pyrrolo[2,3-c]pyridin-3-yl)-1-(phenyl(tetrahydro-2H-pyran-4-yl)methyl)-1H-indol-4-yl)acetamide]
pIC50 ([1]; 120 h): > 6.00

CCS(=O)(=O)c1cccc2c1cc(-c1cn(C)c3c(O)nccc13)n2[C@H](c1ccccc1)C1CCOCC1 [Compound 120, (S)-3-(4-(ethylsulfonyl)-1-(phenyl(tetrahydro-2H-pyran-4-yl)methyl)-1H-indol-2-yl)-1-methyl-1H-pyrrolo[2,3-c]pyridin-7-ol]
pIC50 ([1]; 120 h): > 6.00

CCS(=O)(=O)c1cccc2c1cc(-c1cn(C)c3c(O)nccc13)n2[C@@H](c1ccccc1)C1CCOCC1 [Compound 121, (R)-3-(4-(ethylsulfonyl)-1-(phenyl(tetrahydro-2H-pyran-4-yl)methyl)-1H-indol-2-yl)-1-methyl-1H-pyrrolo[2,3-c]pyridin-7-ol]
pIC50 ([1]; 120 h): > 6.00

Cn1cc(-c2cc3c(NS(C)(=O)=O)cccc3n2[C@H](c2ccccc2)C2CCOCC2)c2ccnc(O)c21 [Compound 122, (S)-N-(2-(7-hydroxy-1-methyl-1H-pyrrolo[2,3-c]pyridin-3-yl)-1-(phenyl(tetrahydro-2H-pyran-4-yl)methyl)-1H-indol-4-yl)methanesulfonamide]
pIC50 ([1]; 120 h): > 6.00

Cn1cc(-c2cc3c(NS(C)(=O)=O)cccc3n2[C@@H](c2ccccc2)C2CCOCC2)c2ccnc(O)c21 [Compound 123, (R)-N-(2-(7-hydroxy-1-methyl-1H-pyrrolo[2,3-c]pyridin-3-yl)-1-(phenyl(tetrahydro-2H-pyran-4-yl)methyl)-1H-indol-4-yl)methanesulfonamide]
pIC50 ([1]; 120 h): > 6.00

CC(C)C(=O)Nc1cccc2c1cc(-c1cn(C)c3c(O)nccc13)n2[C@@H](c1ccccc1)C1CCOCC1 [Compound 124, (R)-N-(2-(7-hydroxy-1-methyl-1H-pyrrolo[2,3-c]pyridin-3-yl)-1-(phenyl(tetrahydro-2H-pyran-4-yl)methyl)-1H-indol-4-yl)isobutyramide]
pIC50 ([1]; 120 h): > 6.00

CC(C)C(=O)Nc1cccc2c1cc(-c1cn(C)c3c(O)nccc13)n2[C@H](c1ccccc1)C1CCOCC1 [Compound 125, (S)-N-(2-(7-hydroxy-1-methyl-1H-pyrrolo[2,3-c]pyridin-3-yl)-1-(phenyl(tetrahydro-2H-pyran-4-yl)methyl)-1H-indol-4-yl)isobutyramide]
pIC50 ([1]; 120 h): > 6.00

CCC(c1ccccn1)(c1ccccn1)n1ccc2c(NS(=O)(=O)CC)cc(-c3cn(C)c4c(=O)[nH]ccc34)cc21 [Compound 126, N-(1-(1,1-di(pyridin-2-yl)propyl)-6-(1-methyl-7-oxo-6,7-dihydro-1H-pyrrolo[2,3-c]pyridin-3-yl)-1H-indol-4-yl)ethanesulfonamide]
pIC50 ([1]; 120 h): > 8.00

CCC(c1ccccn1)(c1ccccn1)n1c(-c2cn(C)c3c(O)nccc23)nc2c(NS(=O)(=O)CC)cccc21 [Compound 127, N-(1-(1,1-di(pyridin-2-yl)propyl)-2-(7-hydroxy-1-methyl-1H-pyrrolo[2,3-c]pyridin-3-yl)-1H-benzo[d]imidazol-4-yl)ethanesulfonamide]
pIC50 ([1]; 120 h): > 6.00

Cn1cc(-c2cc(S(C)(=O)=O)c3ccn(C(C)(c4ccccn4)c4ccccn4)c3c2)c2cc[nH]c(=O)c21 [Compound 128, 3-(1-(1,1-di(pyridin-2-yl)ethyl)-4-(methylsulfonyl)-1H-indol-6-yl)-1-methyl-1,6-dihydro-7H-pyrrolo[2,3-c]pyridin-7-one]
pIC50 ([1]; 120 h): > 6.00

CCS(=O)(=O)c1cc(-c2cn(C)c3c(=O)[nH]ccc23)cc2c1ccn2C(C)(c1ccccn1)c1ccccn1 [Compound 129, 3-(1-(1,1-di(pyridin-2-yl)ethyl)-4-(ethylsulfonyl)-1H-indol-6-yl)-1-methyl-1,6-dihydro-7H-pyrrolo[2,3-c]pyridin-7-one]
pIC50 ([1]; 120 h): > 6.00

CC(C)C(=O)Nc1cc(-c2cn(C)c3c(=O)[nH]ccc23)cc2c1ccn2C(C)(c1ccccn1)c1ccccn1 [Compound 131, N-(1-(1,1-di(pyridin-2-yl)ethyl)-6-(1-methyl-7-oxo-6,7-dihydro-1H-pyrrolo[2,3-c]pyridin-3-yl)-1H-indol-4-yl)isobutyramide]
pIC50 ([1]; 120 h): > 7.00

Cn1cc(-c2cc(NS(C)(=O)=O)c3ccn(C(C)(c4ccccn4)c4ccccn4)c3c2)c2cc[nH]c(=O)c21 [Compound 132, N-(1-(1,1-di(pyridin-2-yl)ethyl)-6-(1-methyl-7-oxo-6,7-dihydro-1H-pyrrolo[2,3-c]pyridin-3-yl)-1H-indol-4-yl)methanesulfonamide]
pIC50 ([1]; 120 h): 7.89

N-(1-benzhydryl-6-(1-methyl-7-oxo-6,7-dihydro-1H-pyrrolo[2,3-c]pyridin-3-yl)-1H-indol-4-yl)ethanesulfonamide [Compound 130]
pIC50 [1]: > 7.00
